Assay results reported in patent publication US20240358668A1, “METHODS AND CO[…] AM[…] CARD[…] USING (R)-2-AMINO-3-PH[…]” (AXSOME THERAPEUTICS, INC., priority 2021, published 2024).
Marks after values point to notes of the source that are not given here.

Test system: adults with EDS associated with OSA
Assay: 12-week phase 3 trial in OSA: vital signs, antihypertensive medication use, AEs of hypertension/increased BP
Format: in vivo, human
Procedure: An exploratory analysis of data from one 12-week randomized, controlled trial (Schweitzer P K, et al. Am J Respir Crit Care Med. 2019; 199(11):1421-31) and 1 long-term open-label extension (OLE) trial in adults with EDS (Epworth Sleepiness Scale score ≥10) associated with OSA (Malhotra A, et al. Sleep. 2020; 43(2):zsz220) was carried out. Participants with current/prior use of primary OSA therapy (positive airway pressure [PAP], oral pressure therapy, oral appliance, or upper airway stimulation) were eligible, regardless of the level of adherence to primary OSA therapy; participants who had not attempted to use primary OSA therapy were excluded. Adherence to primary OSA therapy was defined as PAP use ≥4 hours/night on ≥70% of nights/week, historical report (with investigator concurrence) of oral appliance use on ≥70% of nights, or effective surgical intervention. Nonadherence to primary OSA therapy was defined as device use at a level lower than specific above, no device use at all, or surgical intervention deemed no longer effective. Participants received placebo or solriamfetol 37.5 (12-week trial only), 75, 150, or 300 mg/day for 12 weeks (12-week trial) or ≤40 weeks (OLE trial). Vital signs, antihypertensive medication use, and adverse events (AEs) were monitored throughout the studies. Baseline demographics, CV comorbidities, and concomitant medications, the percentage of participants who initiated antihypertensive medication use during treatment, and the incidence of and discontinuations due to AEs of hypertension/increased BP were summarized for the safety population (participants who received ≥1 dose of study medication).

Structure (SMILES): NC(=O)OC[C@H](N)Cc1ccccc1 [Solriamfetol, (R)-2-amino-3-phenylpropyl carbamate]
- total participants with AEs of hypertension/increased BP (12-week study): 10 participants
- AE of HTN/increased BP (12-week study, 37.5 mg): 0 n (%)
- Discontinuation due to AE of HTN/increased BP (12-week study, 37.5 mg): 0 n (%)
- Initiated anti-HTN (12-week study, 37.5 mg): 1 (1.7) n (%)
- AE of HTN/increased BP (12-week study, 75 mg): 0 n (%)
- Discontinuation due to AE of HTN/increased BP (12-week study, 75 mg): 0 n (%)
- Initiated anti-HTN (12-week study, 75 mg): 0 n (%)
- AE of HTN/increased BP, (%) (12-week study, 150 mg): (4.3) %
- Discontinuation due to AE of HTN/increased BP, (%) (12-week study, 150 mg): (0.9)^b %
- Initiated anti-HTN (12-week study, 150 mg): 1 (0.9) n (%)
- AE of HTN/increased BP, (%) (12-week study, 300 mg): (4.2) %
- Discontinuation due to AE of HTN/increased BP (12-week study, 300 mg): 0 n (%)
- Initiated anti-HTN (12-week study, 300 mg): 2 (1.7) n (%)
- serious CV AEs (12-week trial): no serious CV AEs
